Source: patent US20070299098A1, “Therapeutic Agent for Neuropathic Pain” (Japan Science and Technology Agency, priority 2004, published 2007)

How the values were obtained:
[1] = tested on: hyperalgesia model induced by complete ligation of the L5/L6 spinal nerves; test: Thermal stimulation test (plantar thermal stimulation tester), left plantar pain threshold in hyperalgesia model; assay type: in vivo, rats; conditions: for maximum pain threshold following administration (thermal stimulation): thermal stimulation intensity 35, measured 20, 40, 60 min after administration, male rats; for change of pain threshold versus saline control, in words (thermal stimulation): intraperitoneal, effective doses
Procedure: (§1) Use was made of a hyperalgesia model induced by complete ligation of the L5/L6 spinal nerves in five- to seven-week-old male rats as the experimental animals.
(§2) Mechanical stimulation tests were carried out using the Ugo Basile Model 37400 Dynamic Plantar Aesthesiometer, and thermal stimulation tests were carried out using a plantar thermal stimulation tester (Plantar Test 7370, Ugo Basile). The pain thresholds of the feet on each model animal were measured, and the animals were divided into groups having uniform pain thresholds as measured prior to administration on each day of the experiment. In mechanical stimulation, animals for which the model animal foot pain threshold was 8.0 g or more were excluded from the tests. In thermal stimulation, animals for which the pain threshold for the model foot was 10 seconds or more were excluded from the tests.
(§3) The required amount of the test substance was weighed out and dissolved in physiological saline as the medium. A 2 mg/ml solution was prepared as the highest concentration mixture in the low dosage study, and a 24 mg/ml solution was prepared as the highest concentration mixture in the high dosage study. Solutions at the various concentrations were all prepared at the time of use by suitably diluting these highest concentration mixtures.
Using the syringe barrel and needle, a volume of 5 ml/kg was administrated intraperitoneally.
Groups of five male rats (356.7 to 444.0 g) in which the hyperalgesia model had been induced were used.
Groups of five male rats (400.3 to 499.9 g) in which the hyperalgesia model had been induced were used.
Groups of five male rats (324.8 to 399.0 g) in which the hyperalgesia model had been induced were used.
Groups of five male rats (307.0 to 393.1 g) in which the hyperalgesia model had been induced were used. A plantar thermal stimulation tester set to a thermal stimulation intensity of 35 was used to measure the left plantar pain threshold before naloxonazine administration, and 20 minutes, 40 minutes and 60 minutes after administration.
Groups of five male rats (365.3 to 437.2 g) in which the hyperalgesia model had been induced were used. A plantar thermal stimulation tester set to a thermal stimulation intensity of 35 was used to measure the left plantar pain threshold before naltrindole administration, and 20 minutes, 40 minutes and 60 minutes after administration.

[2] = tested on: hyperalgesia model induced by complete ligation of the L5/L6 spinal nerves; test: Mechanical stimulation test (Dynamic Plantar Aesthesiometer), left plantar pain threshold in hyperalgesia model; assay type: in vivo, rats; conditions: for maximum pain threshold following administration (mechanical stimulation): measured 20, 40, 60 min after administration, male rats; for change of pain threshold versus saline control, in words (mechanical stimulation): intraperitoneal, effective doses, Dunnett's multiple comparison test
Procedure: as §1, §2, §3
Although the object here is to ascertain the direct effect of the test substance on the spinal cord, because the substance has been confirmed to pass through the blood-brain barrier, intraperitoneal administration, which is a simple method of administration, was employed. Using the syringe barrel and needle, a volume of 5 ml/kg was administrated intraperitoneally.
Groups of five male rats (333.7 to 414.2 g) in which the hyperalgesia model had been induced were used.
Groups of five male rats (372.0 to 459.5 g) in which the hyperalgesia model had been induced were used.
Groups of five male rats (295.6 to 356.6 g) in which the hyperalgesia model had been induced were used. […]

[3] = high dose study, 30-120 mg/kg intraperitoneal

Structure (SMILES) | maximum pain threshold following administration (thermal stimulation) ([1]; 0.3 mg/kg intraperitoneal) [s] | maximum pain threshold following administration (thermal stimulation) ([1]; 3 mg/kg intraperitoneal) [s] | maximum pain threshold following administration (thermal stimulation) ([1]; 30 mg/kg intraperitoneal) [s] | change of pain threshold versus saline control, in words (thermal stimulation) [1] | maximum pain threshold following administration (mechanical stimulation) ([2]; 0.3 mg/kg intraperitoneal) [g] | maximum pain threshold following administration (mechanical stimulation) ([2]; 3 mg/kg intraperitoneal) [g] | maximum pain threshold following administration (mechanical stimulation) ([2]; 30 mg/kg intraperitoneal) [g] | change of pain threshold versus saline control, in words (mechanical stimulation) [2] | maximum pain threshold following administration (thermal stimulation) ([1]; 0.1 mg/kg intraperitoneal) [s] | maximum pain threshold following administration (thermal stimulation) ([1]; 1 mg/kg intraperitoneal) [s] | maximum pain threshold following administration (thermal stimulation) ([1]; 120 mg/kg intraperitoneal) [s] | dose at which the analgesic effect reached its peak (thermal stimulation) [1, 3] [mg/kg] | maximum pain threshold following administration (mechanical stimulation) ([2]; 0.1 mg/kg intraperitoneal) [g] | maximum pain threshold following administration (mechanical stimulation) ([2]; 1 mg/kg intraperitoneal) [g] | maximum pain threshold following administration (mechanical stimulation) ([2]; 10 mg/kg intraperitoneal) [g] | maximum pain threshold following administration (mechanical stimulation) ([2]; 60 mg/kg intraperitoneal) [g] | maximum pain threshold following administration (mechanical stimulation) ([2]; 120 mg/kg intraperitoneal) [g] | dose at which the analgesic effect reached its peak (mechanical stimulation) [2, 3] [mg/kg]
C=CCN1CC[C@]23c4c5ccc(O)c4O[C@H]2/C(=N/N=C2\CC[C@@]4(O)[C@H]6Cc7ccc(O)c8c7[C@@]4(CCN6CC=C)[C@H]2O8)CC[C@@]3(O)[C@H]1C5 [naloxonazine] | 6.9 | 7.9 | 12.3 | rose significantly with the administration of 30 mg/kg | 4.9 | 8.6 | 14.5 | rose significantly with the administration of 3 and 30 mg/kg |  |  |  |  |  |  |  |  |  | 
C=CCN1CC[C@]23c4c5ccc(O)c4O[C@H]2C(=O)CC[C@@]3(O)[C@H]1C5 [naloxone] |  |  |  | rose significantly with the administration of 10 mg |  |  | 10.4 | rose significantly with the administration of 1 mg and 10 mg | 7.2 | 9.2 | 23.8 | 30 | 5.8 | 7.7 | 9.5 | 10.6 | 10.3 | 60
O=C1CC[C@@]2(O)[C@H]3Cc4ccc(O)c5c4[C@@]2(CCN3CC2CC2)[C@H]1O5 [naltrexone] | 7.7 |  |  | rose significantly with the administration of 3 and 30 mg/kg | 5.1 | 6.7 | 10.1 | rose significantly with the administration of 30 mg/kg |  |  |  |  |  |  |  |  |  | 
Oc1ccc2c3c1O[C@H]1c4[nH]c5ccccc5c4C[C@@]4(O)[C@@H](C2)N(CC2CC2)CC[C@]314 [naltrindole] | 7.0 | 9.2 | 9.2 | rose significantly with the administration of 3 and 30 mg/kg | 5.8 | 9.4 | 14.1 | rose significantly with the administration of 3 and 30 mg/kg |  |  |  |  |  |  |  |  |  | 
